Assay results reported in patent US10774083B2, “Heterocyclic amide compound” (TAKEDA PHARMACEUTICAL COMPANY LIMITED, priority 2016, dated 2020).
Each block holds one molecule with its values, some of them ahead of it.

Assays:
[1] = tested on: human ovarian cancer cells A2780; test: proliferation inhibitory activity against human ovarian cancer cell A2780 (CellTiter-Glo); assay type: cell-based; conditions: A2780, 72 h, 1 μM test compound, 3 days of culture, read-out: proliferation inhibitory rate (%) of A2780 cells
How it was run: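 A2780 cells in RPMI-1640 with 10% FBS, compound added the day after seeding and cultured 3 days. Viability by CellTiter-Glo luminescence. Inhibition (%) calculated with cell-free wells as 100% inhibition.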

[2] = target: T1, human PRS protein (His-Avi-hEPRS (998-1512)) (Homo sapiens, UniProt P07814); test: PRS inhibitory activity ([32P]pyrophosphate exchange enzyme assay); assay type: biochemical; conditions: 300 nM test compound; read-out: inhibitory rate (%) of PRS
T1 construct: to construct His-Avi-hEPRS (998-1512) expression plasmid; His tag (N); Avi tag (N); TEV cleavage site (ENLYFQG, then S; inferred from the forward primer hEPRS-TEV-NheF) (N); made in house; host or cells: E. coli BL21(DE3)
T1 sequence (P07814 998-1512 limits assumed): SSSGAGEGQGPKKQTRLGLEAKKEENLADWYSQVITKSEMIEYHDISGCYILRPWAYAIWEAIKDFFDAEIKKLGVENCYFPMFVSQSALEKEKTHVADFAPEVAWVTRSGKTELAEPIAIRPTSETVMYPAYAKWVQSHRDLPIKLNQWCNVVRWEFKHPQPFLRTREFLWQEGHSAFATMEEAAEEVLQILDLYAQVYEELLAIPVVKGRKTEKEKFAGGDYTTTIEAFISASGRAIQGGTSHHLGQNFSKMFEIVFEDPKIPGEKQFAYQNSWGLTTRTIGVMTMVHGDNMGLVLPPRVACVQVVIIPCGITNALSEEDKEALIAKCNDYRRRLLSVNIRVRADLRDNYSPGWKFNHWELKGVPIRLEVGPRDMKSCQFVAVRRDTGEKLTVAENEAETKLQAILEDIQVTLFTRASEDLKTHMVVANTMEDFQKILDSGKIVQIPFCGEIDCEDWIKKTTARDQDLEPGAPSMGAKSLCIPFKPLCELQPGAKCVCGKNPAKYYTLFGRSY
How it was run: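 Compound was pre-incubated 60 min with 40 nM His-Avi-hEPRS (998-1512) (stock, E. coli-expressed) in Tris pH 7.5/KCl/DTT/Tween/MgCl2. Reaction began with substrate mix containing 300 μM ATP, 160 μM L-proline, 400 μM [32P]pyrophosphate (stock levels) and ran 30 min at room temperature. Charcoal-bound radioactivity was counted; inhibition was relative to no-reaction control.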

Compound: Cn1cc(-c2cc(F)cc(CNC(=O)c3nccc4nc(C5CCCC5)n(CC(N)=O)c34)c2)cn1 [Example 128, 3-(2-amino-2-oxoethyl)-2-cyclopentyl-N-(3-fluoro-5-(1-methyl-1H-pyrazol-4-yl)benzyl)-3H-imidazo[4,5-c]pyridine-4-carboxamide]
inhibition at 1 µM [1]: 97% | inhibition at 0.3 µM [2]: 102%

Compound: Cn1cc(-c2cc(F)cc(CNC(=O)c3nccc4nc(C5CCCC5)n(CC#N)c34)c2)cn1 [Example 131, 3-(cyanomethyl)-2-cyclopentyl-N-(3-fluoro-5-(1-methyl-1H-pyrazol-4-yl)benzyl)-3H-imidazo[4,5-c]pyridine-4-carboxamide]
inhibition at 1 µM [1]: 93% | inhibition at 0.3 µM [2]: 101%

Compound: Cc1cc(N2CCC(C)(C)C2=O)cc(C(=O)NCc2cc(F)cc(-c3cnn(C)c3)c2)n1 [Example 165, 4-(3,3-dimethyl-2-oxopyrrolidin-1-yl)-N-(3-fluoro-5-(1-methyl-1H-pyrazol-4-yl)benzyl)-6-methylpyridine-2-carboxamide]
inhibition at 1 µM [1]: 75% | inhibition at 0.3 µM [2]: 100%

Compound: Cc1cc(N2CC[C@@](C#N)(C3CC3)C2=O)cc(C(=O)NCc2cc(C#N)cc(-c3cnn(C)c3)c2)n1 [Example 167, 4-((3S)-3-cyano-3-cyclopropyl-2-oxopyrrolidin-1-yl)-N-(3-cyano-5-(1-methyl-1H-pyrazol-4-yl)benzyl)-6-methylpyridine-2-carboxamide]
inhibition at 1 µM [1]: 98% | inhibition at 0.3 µM [2]: 99%

Compound: Cc1cc(N2CC[C@@](C#N)(C3CC3)C2=O)cc(C(=O)NCc2cc(F)cc(-c3cnn(C4CC4)c3)c2)n1 [Example 168, 4-((3S)-3-cyano-3-cyclopropyl-2-oxopyrrolidin-1-yl)-N-(3-(1-cyclopropyl-1H-pyrazol-4-yl)-5-fluorobenzyl)-6-methylpyridine-2-carboxamide]
inhibition at 1 µM [1]: 98% | inhibition at 0.3 µM [2]: 100%

Compound: Cc1cc(N2CC[C@@](C#N)(C3CC3)C2=O)cc(C(=O)NCc2cc(F)cc(-c3ccc(=O)n(C)c3)c2)n1 [Example 169, 4-((3S)-3-cyano-3-cyclopropyl-2-oxopyrrolidin-1-yl)-N-(3-fluoro-5-(1-methyl-6-oxo-1,6-dihydropyridin-3-yl)benzyl)-6-methylpyridine-2-carboxamide]
inhibition at 1 µM [1]: 98% | inhibition at 0.3 µM [2]: 100%

Compound: Cc1cc(N2CC[C@@](C#N)(C3CC3)C2=O)cc(C(=O)NCc2cc(F)cc(-c3cnn(C4CCOCC4)c3)c2)n1 [Example 182, 4-((3S)-3-cyano-3-cyclopropyl-2-oxopyrrolidin-1-yl)-N-(3-fluoro-5-(1-(tetrahydro-2H-pyran-4-yl)-1H-pyrazol-4-yl)benzyl)-6-methylpyridine-2-carboxamide]
inhibition at 1 µM [1]: 97% | inhibition at 0.3 µM [2]: 101%

Compound: Cc1cc(N2CC[C@@](C#N)(C3CC3)C2=O)cc(C(=O)NCc2cc(F)cc(-c3cnc(C)s3)c2)n1 [Example 187, 4-((3S)-3-cyano-3-cyclopropyl-2-oxopyrrolidin-1-yl)-N-(3-fluoro-5-(2-methyl-1,3-thiazol-5-yl)benzyl)-6-methylpyridine-2-carboxamide]
inhibition at 1 µM [1]: 65% | inhibition at 0.3 µM [2]: 99%

Compound: Cc1cc(-c2cc(F)cc(CNC(=O)c3cc(N4CC[C@@](C#N)(C5CC5)C4=O)cc(C)n3)c2)cnn1 [Example 207, 4-((3S)-3-cyano-3-cyclopropyl-2-oxopyrrolidin-1-yl)-N-(3-fluoro-5-(6-methylpyridazin-4-yl)benzyl)-6-methylpyridine-2-carboxamide]
inhibition at 1 µM [1]: 59% | inhibition at 0.3 µM [2]: 96%

Compound: Cc1cc(-c2cc(F)cc(CNC(=O)c3cc(N4CC[C@@](C#N)(C5CC5)C4=O)cc(C)n3)c2)ccn1 [Example 209, 4-((3S)-3-cyano-3-cyclopropyl-2-oxopyrrolidin-1-yl)-N-(3-fluoro-5-(2-methylpyridin-4-yl)benzyl)-6-methylpyridine-2-carboxamide]
inhibition at 1 µM [1]: 80% | inhibition at 0.3 µM [2]: 100%

Compound: Cn1cc(-c2cc(F)cc(CNC(=O)c3cc(N4CC[C@@](C#N)(C5CC5)C4=O)cc(C(F)F)n3)c2)cn1 [Example 214, 4-((3S)-3-cyano-3-cyclopropyl-2-oxopyrrolidin-1-yl)-6-(difluoromethyl)-N-(3-fluoro-5-(1-methyl-1H-pyrazol-4-yl)benzyl)pyridine-2-carboxamide]
inhibition at 1 µM [1]: 72% | inhibition at 0.3 µM [2]: 99%

Second part, led by results:

inhibition at 0.3 µM [2]: 101%
Compound: Cc1cc(N2CC[C@@](C#N)(C3CC3)C2=O)cc(C(=O)NCc2cc(Cl)cc(-c3cnn(C)c3)c2)n1 [Example 216, N-(3-chloro-5-(1-methyl-1H-pyrazol-4-yl)benzyl)-4-((3S)-3-cyano-3-cyclopropyl-2-oxopyrrolidin-1-yl)-6-methylpyridine-2-carboxamide]
inhibition at 1 µM [1]: 89%

inhibition at 0.3 µM [2]: 101%
Compound: Cc1cc(CNC(=O)c2cc(N3CC[C@@](C#N)(C4CC4)C3=O)cc(C)n2)cc(-c2cnn(C)c2)c1 [Example 217, 4-((3S)-3-cyano-3-cyclopropyl-2-oxopyrrolidin-1-yl)-6-methyl-N-(3-methyl-5-(1-methyl-1H-pyrazol-4-yl)benzyl)pyridine-2-carboxamide]
inhibition at 1 µM [1]: 80%

inhibition at 0.3 µM [2]: 99%
Compound: Cc1cc(N2C(=O)[C@](C#N)(C3CC3)C[C@@H]2C)cc(C(=O)NCc2cc(F)cc(-c3cnn(C)c3)c2)n1 [Example 221, 4-((3S,5S)-3-cyano-3-cyclopropyl-5-methyl-2-oxopyrrolidin-1-yl)-N-(3-fluoro-5-(1-methyl-1H-pyrazol-4-yl)benzyl)-6-methylpyridine-2-carboxamide]
inhibition at 1 µM [1]: 64%

inhibition at 0.3 µM [2]: 100%
Compound: Cc1cn(-c2cc(F)cc(CNC(=O)c3cc(N4CC[C@@](C#N)(C5CC5)C4=O)cc(C)n3)c2)cn1 [Example 228, 4-((3S)-3-cyano-3-cyclopropyl-2-oxopyrrolidin-1-yl)-N-(3-fluoro-5-(4-methyl-1H-imidazol-1-yl)benzyl)-6-methylpyridine-2-carboxamide]
inhibition at 1 µM [1]: 88%

inhibition at 0.3 µM [2]: 100%
Compound: Cc1cc(N2CCC(C#N)(C3CCC3)C2=O)cc(C(=O)NCc2cc(F)cc(-c3cnn(C)c3)c2)n1 (centres unmarked) [Example 229, 4-(3-cyano-3-cyclobutyl-2-oxopyrrolidin-1-yl)-N-(3-fluoro-5-(1-methyl-1H-pyrazol-4-yl)benzyl)-6-methylpyridine-2-carboxamide]
inhibition at 1 µM [1]: 91%

inhibition at 0.3 µM [2]: 100%
Compound: Cc1cc(N2CCC3(CCC3)C2=O)cc(C(=O)NCc2cc(F)cc(-c3cnn(C)c3)c2)n1 [Example 232, N-(3-fluoro-5-(1-methyl-1H-pyrazol-4-yl)benzyl)-6-methyl-4-(5-oxo-6-azaspiro[3.4]oct-6-yl)pyridine-2-carboxamide]
inhibition at 1 µM [1]: 64%

inhibition at 0.3 µM [2]: 100%
Compound: Cc1cc(N2CCC3(CC3)C2=O)cc(C(=O)NCc2cc(F)cc(-c3cnn(C)c3)c2)n1 [Example 233, N-(3-fluoro-5-(1-methyl-1H-pyrazol-4-yl)benzyl)-6-methyl-4-(4-oxo-5-azaspiro[2.4]hept-5-yl)pyridine-2-carboxamide]
inhibition at 1 µM [1]: 70%

inhibition at 0.3 µM [2]: 101%
Compound: Cc1cc(N2CC[C@@](C#N)(C3CC3)C2=O)nc(C(=O)NCc2cc(F)cc(-c3cnn(C)c3)c2)n1 [Example 238, 4-((3S)-3-cyano-3-cyclopropyl-2-oxopyrrolidin-1-yl)-N-(3-fluoro-5-(1-methyl-1H-pyrazol-4-yl)benzyl)-6-methylpyrimidine-2-carboxamide]
inhibition at 1 µM [1]: 95%
